Data reported in patent publication US20250084049A1, “POLYCATIONIC SALTS OF PHENOLIC COMPOUNDS AND USES THEREOF” (Firmenich Incorporated, priority 2021, published 2025).

Assay: storage of the aqueous salt solution at room temperature under nitrogen
Type: physicochemical
Conditions: ~10% aqueous solution, stored for several days at room temperature under nitrogen
Method: Naringenin (500 mg, 1.84 mmol) was suspended in water (2 mL) and while stirring a solution of NaOH (2 equiv.) in water (3 mL) was added dropwise. After addition was complete, the reaction was bubbled with nitrogen and stirring continued until the solution became homogeneous. […] MS 273 (M+3H−2Na)^+.
Naringenin (500 mg, 1.84 mmol) was suspended in water (2 mL) and while stirring a solution of KOH (2 equiv.) in water (3 mL) was added dropwise. After addition was complete, the reaction was bubbled with nitrogen and stirring continued until the solution became homogeneous. […] MS 273 (M+3H−2K)^+.
Phloterin (500 mg, 1.82 mmol) was suspended in water (2 mL) and while stirring a solution of NaOH (2 equiv.) in water (3 mL) was added dropwise. After addition was complete, the reaction was bubbled with nitrogen and stirring continued until the solution became homogeneous. […] MS 275 (M+3H−2Na)^+.
Phloterin (500 mg, 1.82 mmol) was suspended in water (2 mL) and while stirring a solution of KOH (2 equiv.) in water (3 mL) was added dropwise. After addition was complete, the reaction was bubbled with nitrogen and stirring continued until the solution became homogeneous. […] MS 275 (M+3H−2K)^+.

Compound	stability of the solution on storage
O=C(CCc1ccc(O)cc1)c1c(O)cc(O)cc1O.[Na].[Na] [Example 3, Disodium Salt of Phloterin]	without any significant change
O=C1C[C@@H](c2ccc(O)cc2)Oc2cc(O)cc(O)c21.[Na].[Na] [Example 1, Disodium Salt of Naringenin]	without any significant change
O=C(CCc1ccc(O)cc1)c1c(O)cc(O)cc1O.[K].[K] [Example 4, Dipotassium Salt of Phloterin]	without any significant change
O=C1C[C@@H](c2ccc(O)cc2)Oc2cc(O)cc(O)c21.[K].[K] [Example 2, Dipotassium Salt of Naringenin]	without any significant change
